Measurements reported in ChEMBL document CHEMBL5634080, “Synthesis, biological evaluation and docking studies of silicon incorporated diarylpyrroles as MmpL3 inhibitors: An effective strategy towards development of potent anti-tubercular agents” (Eur J Med Chem, 2023).
Values after ≈ are worked out from the molar mass of the structure shown.

How the values were obtained:
[1] = system: Mycobacterium tuberculosis; assay: Antitubercular activity against Mycobacterium tuberculosis H37Rv assessed as inhibition of bacterial growth incubated for 6 days by Alamar Blue based assay; type: functional; details: 144 h, time 6 day
[2] = Solubility of the compound at 5 mM at pH 1.2 by HPLC analysis; type: physicochemical; details: buffer
HEK293 = assay: Cytotoxicity against HEK293 cells assessed as reduction in cell viability at >45 uM measured after 24 hrs by MTT assay; type: toxicity, cell-based; details: human, hek293, 24 h
[3] = Metabolic stability in human liver microsomes at 50 uM measured after 30 mins by LC-MS/MS analysis; type: ADME, Microsome; details: read-out: Stability
[4] = Solubility of the compound at 5 mM at pH 7.4 by HPLC analysis; type: physicochemical; details: buffer
[5] = Metabolic stability in human plasma at 50 uM measured after 60 mins by LC-MS/MS analysis; type: ADME, cell-free; details: read-out: Stability
[6] = Metabolic stability in mouse liver microsomes at 50 uM measured after 30 mins by LC-MS/MS analysis; type: ADME, Microsome; details: read-out: Stability
[7] = Selectivity index, ratio of IC50 for cytotoxicity against HEK293 cells to MIC for antitubercular activity against Mycobacterium tuberculosis H37Rv; type: toxicity, cell-based; details: human, read-out: Ratio IC50
[8] = Cytotoxicity against mouse primary astrocytes assessed as reduction in cell viability measured after 24 hrs by MTT assay; type: toxicity, cell-based, Astrocyte
[9] = Solubility of the compound at 5 mM at pH 4.5 by HPLC analysis; type: physicochemical; details: buffer
[10] = Solubility of the compound at 5 mM at pH 2.2 by HPLC analysis; type: physicochemical; details: buffer
[11] = Protein binding in human plasma at 150 uM by equilibrium dialysis method; type: ADME, cell-free; details: read-out: PPB (converted)
[12] = Solubility of the compound at 5 mM at pH 10.2 by HPLC analysis; type: physicochemical; details: buffer
[13] = Selectivity index, ratio of IC50 for cytotoxicity against mouse primary astrocytes cells to MIC for antitubercular activity against Mycobacterium tuberculosis H37Rv; type: toxicity, cell-based; details: read-out: Ratio IC50
[14] = system: Mycobacterium tuberculosis; assay: Antitubercular activity against Mycobacterium tuberculosis H37Rv; type: functional

COc1ccc(-c2cc(CN3CC[Si](C)(C)CC3)c(C)n2-c2ccc(F)cc2)cc1
MIC [1]: 1.5 µM (≈ 0.634 µg/mL)

CCc1ccc(-n2c(-c3ccc(Cl)cc3)cc(CN3CC[Si](C)(C)CC3)c2C)cc1
solubility at 5000 µM [2]: 9.86 µM (≈ 4.31 µg/mL)
Activity (HEK293): Non-Toxic
remaining at 0.5 h, 50 µM [3]: 60.8%
solubility at 5000 µM [4]: 1.19 µM (≈ 0.52 µg/mL)
remaining at 1 h, 50 µM [5]: 95.7%
remaining at 0.5 h, 50 µM [6]: 75.5%
selectivity ratio [7]: > 250
IC50 at 24 h [8]: > 20 µM
solubility at 5000 µM [9]: 32.6 µM (≈ 14.3 µg/mL)
solubility at 5000 µM [10]: 37.2 µM (≈ 16.3 µg/mL)
MIC [1]: 0.1 µM (≈ 0.0437 µg/mL)
fraction unbound at 150 µM [11]: 0.0002
solubility at 5000 µM [12]: 12.9 µM (≈ 5.65 µg/mL)
selectivity ratio [13]: > 250

NNC(=O)c1ccncc1 [ISONIAZID]
MIC [1]: 2.2 µM (≈ 0.302 µg/mL)

CSc1ccc(-c2cc(CN3CC[Si](C)(C)CC3)c(C)n2-c2ccc(F)cc2)cc1
MIC [1]: 0.2 µM (≈ 0.0877 µg/mL)

CCc1ccc(-n2c(-c3ccc(OC)cc3)cc(CN3CC[Si](C)(C)CC3)c2C)cc1
MIC [1]: 1.5 µM (≈ 0.649 µg/mL)

CCc1ccc(-n2c(C)cc(CN3CC[Si](C)(C)CC3)c2-c2ccc(OC)cc2)cc1
MIC [1]: 23.1 µM (≈ 10 µg/mL)

Cc1c(C(=O)NN2CCCCC2)nn(-c2ccc(Cl)cc2Cl)c1-c1ccc(Cl)cc1 [RIMONABANT]
MIC [14]: 54 µM (≈ 25 µg/mL)

COc1ccc(-c2c(CN3CC[Si](C)(C)CC3)cc(C)n2-c2ccc(F)cc2)cc1
MIC [1]: 7.4 µM (≈ 3.13 µg/mL)

Cc1c(CN2CCN(C)CC2)cc(-c2ccc(Cl)cc2)n1-c1ccc(Cl)cc1
solubility at 5000 µM [2]: 45.2 µM (≈ 18.7 µg/mL)
remaining at 0.5 h, 50 µM [3]: 79.8%
solubility at 5000 µM [4]: 26.7 µM (≈ 11.1 µg/mL)
remaining at 0.5 h, 50 µM [6]: 62.4%
solubility at 5000 µM [9]: 36.7 µM (≈ 15.2 µg/mL)
solubility at 5000 µM [10]: 42.2 µM (≈ 17.5 µg/mL)
MIC [1]: 1.7 µM (≈ 0.704 µg/mL)
solubility at 5000 µM [12]: 5.38 µM (≈ 2.23 µg/mL)

C[Si]1(C)CCN(Cc2cc(-c3ccc(Cl)cc3)n(-c3ccc(Cl)cc3)n2)CC1
MIC [14]: 0.07 µM (≈ 0.0301 µg/mL)

Cc1c(CN2CC[Si](C)(C)CC2)cc(-c2ccc(Cl)cc2)n1-c1ccc(Cl)cc1
solubility at 5000 µM [2]: 38.8 µM (≈ 17.2 µg/mL)
Activity (HEK293): Non-Toxic
remaining at 0.5 h, 50 µM [3]: 56.7%
solubility at 5000 µM [4]: 4.73 µM (≈ 2.1 µg/mL)
remaining at 1 h, 50 µM [5]: 99.4%
remaining at 0.5 h, 50 µM [6]: 86.3%
selectivity ratio [7]: > 250
IC50 at 24 h [8]: > 20 µM
solubility at 5000 µM [9]: 36.7 µM (≈ 16.3 µg/mL)
solubility at 5000 µM [10]: 39.1 µM (≈ 17.3 µg/mL)
MIC [1]: 0.1 µM (≈ 0.0443 µg/mL)
fraction unbound at 150 µM [11]: 0.0002
selectivity ratio [13]: > 250

CCc1ccc(-c2cc(CN3CC[Si](C)(C)CC3)c(C)n2-c2ccc(OC)cc2)cc1
MIC [1]: 0.2 µM (≈ 0.0865 µg/mL)

Cc1c(CN2CC[Si](C)(C)CC2)cc(-c2ccc(Cl)cc2)n1-c1ccccc1
MIC [1]: 0.1 µM (≈ 0.0409 µg/mL)

Cc1ccc(-c2cc(CN3CC[Si](C)(C)CC3)c(C)n2-c2ccc(F)cc2)cc1
solubility at 5000 µM [2]: 43.7 µM (≈ 17.8 µg/mL)
Activity (HEK293): Non-Toxic
remaining at 0.5 h, 50 µM [3]: 36.4%
solubility at 5000 µM [4]: 26.8 µM (≈ 10.9 µg/mL)
remaining at 1 h, 50 µM [5]: 96.9%
remaining at 0.5 h, 50 µM [6]: 45.1%
selectivity ratio [7]: > 250
IC50 at 24 h [8]: > 20 µM
solubility at 5000 µM [9]: 42.6 µM (≈ 17.3 µg/mL)
solubility at 5000 µM [10]: 42.1 µM (≈ 17.1 µg/mL)
MIC [1]: 0.1 µM (≈ 0.0407 µg/mL)
fraction unbound at 150 µM [11]: 0.0009
solubility at 5000 µM [12]: 3.13 µM (≈ 1.27 µg/mL)
selectivity ratio [13]: > 250

CSc1ccc(-c2c(CN3CC[Si](C)(C)CC3)cc(C)n2-c2ccc(F)cc2)cc1
MIC [1]: 3.6 µM (≈ 1.58 µg/mL)
